Earlier results as cited in US20170002355A1, “cGAP-PNA MULTIVALENT PEPTIDE NUCLEIC ACID LIGAND DISPLAY” (THE USA, AS REPRESENTED BY THE SECRETARY, DEPART- MENT OF …, priority 2014, published 2017).

What was measured:
hA1AR = target: T1, hA1AR (Homo sapiens, UniProt P30542); details: published literature values of XAC (Kecskes et al. 2011)
T1 construct: expressed in transfected cells
T1 sequence (P30542 1-326): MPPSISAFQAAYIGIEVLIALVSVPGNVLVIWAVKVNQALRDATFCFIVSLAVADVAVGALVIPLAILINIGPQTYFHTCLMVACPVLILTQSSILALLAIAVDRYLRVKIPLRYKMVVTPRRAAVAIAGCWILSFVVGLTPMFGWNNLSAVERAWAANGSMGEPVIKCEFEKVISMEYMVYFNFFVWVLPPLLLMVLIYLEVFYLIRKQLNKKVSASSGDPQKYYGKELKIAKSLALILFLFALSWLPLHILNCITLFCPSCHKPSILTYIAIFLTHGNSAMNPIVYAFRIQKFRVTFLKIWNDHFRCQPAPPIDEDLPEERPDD

hA3AR = target: T2, hA3AR (Homo sapiens, UniProt P0DMS8); details: published literature values of XAC (Kecskes et al. 2011)
T2 construct: expressed in transfected cells
T2 sequence (P0DMS8 1-318): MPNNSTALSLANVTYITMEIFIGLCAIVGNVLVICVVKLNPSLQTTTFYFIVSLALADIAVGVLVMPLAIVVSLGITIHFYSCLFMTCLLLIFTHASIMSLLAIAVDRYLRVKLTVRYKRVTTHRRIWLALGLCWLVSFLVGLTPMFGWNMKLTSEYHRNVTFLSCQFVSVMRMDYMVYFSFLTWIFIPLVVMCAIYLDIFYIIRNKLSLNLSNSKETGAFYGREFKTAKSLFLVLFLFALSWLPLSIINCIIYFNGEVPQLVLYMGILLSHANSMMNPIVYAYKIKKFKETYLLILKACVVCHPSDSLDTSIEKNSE

For `CCCn1c(=O)c2[nH]c(-c3ccc(OCC(=O)NCCN)cc3)nc2n(CCC)c1=O` [XAC, N-(2-aminoethyl)-2-[4-(2,3,6,7-tetrahydro-2,6-dioxo-1,3-dipropyl-1H-purin-8-yl)phenoxy]-acetamide], the “A1:A2A selectivity, literature” value (hA1AR) is listed as 1.4 and the “A3:A2A selectivity, literature” value (hA3AR) is listed as 2.4.
